Experimental data: US10233209B2, “Inhibitors of the farnesoid x receptor and uses in medicine” (The United States of America, as represented by the …, priority 2013, dated 2019)
Entries after “also recorded” stand apart in the source; their conditions may differ.

Columns and labels:
db/db mice = experiment: Gly-MCA in leptin receptor-deficient (db/db) mice; type: in vivo, mouse
Excerpt: (§1) High-fat diet (HFD) (60% kcal consisting of fat) was purchased from Bioserv. […] Fxr^fl/fl and Fxr^ΔIE (Kim et al., J. Lipid Res. 48:2664-2672, 2007) mice were backcrossed with C57BL/6N mice for over 10 generations. For the antibiotic (the combination of bacitracin, neomycin, and streptomycin) study, male C57BL/6N mice from 6 weeks of age were fed a high-fat diet (“HFD) and administered 0.1% (w/v) of each compound (the combination of bacitracin, neomycin, and streptomycin) in the drinking water. […] For TβMCA in vivo, male C57BL/6N mice from 6 weeks of age were fed a HFD and treated with the antibiotics (0.1% of each compound of bacitracin, neomycin, and streptomycin combination) for 3 days. Vehicle (saline), TCA (400 mg/kg body weight, dissolved in saline) or a combination of TCA and TβMCA (400 mg/kg body weight of each compound, dissolved in saline) were orally administered to the mice and followed by a second dose 12 h later. The mice were killed 2 h later for tissue collection. For the Gly-MCA study, Gly-MCA was custom synthesized. Bacon-flavored dough pills were produced as described (Walker et al., Toxicol. Appl. Pharmacol. 260:65-69, 2012) for oral administration of Gly-MCA (0.25 mg Gly-MCA/pill, dose of 10 mg/kg). Mice were trained to eat the dough pills prior to the study. For the prevention of obesity, insulin resistance and NAFLD, male wild-type (WT) C57BL/6N mice, 6- to 8-weeks-old, were fed a high-fat diet (Bio-Serv, Frenchtown, N.J.; 60 kcal % fat) from the age of 6 weeks and were orally administered with vehicle (control pills) or Gly-MCA (0.25 mg/pill/day, dose 10 mg/kg). C57BL/6N mice fed a high-fat diet for 12 weeks were administered (0.25 mg Gly-MCA/pill, dose of 5 mg/kg). Leptin-deficient db/db mice, 6- to 8-weeks-old, fed a chow diet, were administered Gly-MCA (0.25 mg/pill/day, 10 mg/kg). Mice were housed individually in their home cages. Cumulative food intake and TEEbal were measured for 1 week in vehicle and Gly-MCA-treated mice from 6 to 7 weeks of HFD. TEEbal was measured as previously described (Ravussin et al., Int. J. Obesity 37:399-403, 2013).

[1] = liver toxicity 24 h after Gly-MCA dosing (ALT, AST); type: in vivo, mouse; details: 1, 5, 50 mg/kg; after 24 h; vs vehicle
Description: Mice were dosed with vehicle or Gly-MCA at 1 mg/kg, 5 mg/kg, and 50 mg/kg. After 24 h, […] (ALT) and […] (AST) levels were determined and the results shown in FIG. 37.

HFD-induced obese mice = experiment: Gly-MCA in C57BL/6N mice made obese by 12 weeks of high-fat diet; type: in vivo, mouse; details: 5 mg/kg
Excerpt: as §1

[2] = Gly-MCA incubation with fecal extract (hydrolysis by gut bacteria); type: in vitro ADME, mouse; details: 50 μM Gly-MCA; 0.1 mg/mL fecal extract; TβMCA positive control
Description: Fecal proteins were prepared from the fecal sample (0.5 g) in pH 7.4 PBS (5.0 ml) using sonication. Incubation was carried out in 3 mM sodium acetate buffer, pH 5.2, containing 0.1 mg/ml fecal protein and 50 μM Gly-MCA or T-β-MCA in a final volume of […]. After a 20-min incubation at 37° C., the samples were plunged into dry ice to stop the reaction. 100 of μL methanol was directly added to the […] reaction mixture. After centrifuging at 14,000 g for 20 min, […] of the supernatant was transferred to an autosampler vial subjected to analysis by a UPLC system coupled with a XEVO triple quadrupole tandem mass spectrometer (Waters Corp., Milford, Mass.).
Fecal extracts were prepared as described above. Gly-MCA (50 μM) was incubated with fecal extract (0.1 mg/mL). The negative control was fecal extract alone. The positive control was fecal extract (0.1 mg/mL) and TβMCA acid (50 μM).

[3] = Gly-MCA in mouse ileum after oral gavage; type: in vivo; details: oral gavage 0, 1, 5, 50 mg/kg in corn oil
Description: Gly-MCA was given to mice via oral gavage at dosages of 0, 1, 5, and 50 mg/kg of Gly-MCA, with the Gly-MCA dosed in corn oil. Gly-MCA was detected using ultra performance liquid chromatography-electrospray ionization-quadrupole time-of-flight mass spectrometry (UPLC-ESI-QTOFMS).

[4] = tested on: HFD-treated C57BL/6N mice; experiment: Gly-MCA in mice fed a high-fat diet (prevention of obesity, insulin resistance, NAFLD); type: in vivo, mouse
Excerpt: as §1
The mucosa of intestine was gently scraped and liver was taken and both were flash frozen in liquid nitrogen and stored at −80° C. until RNA was prepared. RNA was extracted from frozen intestine and liver using TRIzol reagent (Invitrogen, Carlsbad, Calif.). cDNA was synthesized from 1 μg total RNA using Superscript II reverse transcriptase (Invitrogen, Carlsbad, Calif.). qPCR primers were designed with qPrimerDepot. Measured mRNA levels were normalized to those of 18S ribosomal RNA and expressed as fold change relative to those of control group.
Lipidomics analysis: For serum lipidomics analysis 25 μl serum were extracted by 4-fold cold chloroform:methanol (2:1) solution containing 2 μM LPC (17:0), PC (17:0), SM (17:0) and CER (17:0) (Avanti Polar Lipids, Alabaster, Ala.) as internal standards. The samples were vortexed for 30 s and then allowed to stand for 5 min at room temperature. The mixture was centrifuged at 13,000 rpm for 5 min and then the lower organic phase was collected and evaporated at room temperature under vacuum. The residue was dissolved in chloroform:methanol (1:1), followed by diluting with isopropanol:acetonitrile:H2O (2:1:1) containing 2 μM PC (17:0) prior to UPLC-MS analysis. For tissue lipidomics analysis, about 50 mg of accurately weighted tissues were homogenized with 700 μL methanol: H2O (4:3) solution and then extracted using 800 μL chloroform containing 2 μM LPC (17:0), SM (17:0) and CER (17:0) as internal standards. The homogenate was incubated at 37° C. for 20 min followed by centrifuged for 20 min at 13,000 rpm. The lower organic phase was transferred to a new tube and dried under vacuum. The residue was suspended with 100 chloroform:methanol (1:1) solution and then diluted with isopropanol:acetonitrile:H2O (2:1:1) solution containing 2 μM PC (17:0) before injection. […]

C[C@H](CCC(=O)NCC(=O)O)[C@H]1CC[C@H]2[C@@H]3[C@@H](O)[C@@H](O)[C@@H]4C[C@H](O)CC[C@]4(C)[C@H]3CC[C@]12C [Gly-MCA, glycine-β-muricholic acid]
absolute fat mass (NMR) (db/db mice; 6 weeks): significantly decreased
hepatic lipid droplets (liver histology) (db/db mice; 6 weeks): significant decrease in hepatic lipid droplets
liver TG contents (db/db mice; 6 weeks): dramatically improved
liver weights (db/db mice; 6 weeks): decreased
serum ALT levels (db/db mice; 6 weeks): significantly decreased
serum AST levels (db/db mice; 6 weeks): significantly decreased
serum triglyceride levels (db/db mice; 6 weeks): remained similar
body weight (db/db mice; Gly-MCA 6 weeks, 10 mg/kg): reduced body weight
liver toxicity (serum ALT and AST levels) [1]: do not develop significant liver toxicity; also recorded: did not exhibit significant liver toxicity
body weight gain (HFD-induced obese mice; HFD-induced obese mice, from two weeks of treatment): reduced body weight gain
absolute fat mass (NMR) (HFD-induced obese mice; obese mice, 6 weeks): significantly decreased
hepatic lipid droplets (liver histology) (HFD-induced obese mice; obese mice, 6 weeks): marked amelioration in hepatic lipid droplets
liver weights (HFD-induced obese mice; obese mice, 6 weeks): reduced
stability: hydrolysis to β-MCA on incubation with fecal extract [2]: stable in the intestine
Gly-MCA detected in mouse ileum (stability in intestine) [3]: stable in the intestine
Gly-MCA levels in the feces ([4]; Gly-MCA treatment for 9 weeks): markedly increased
Gly-MCA levels in the ileum ([4]; Gly-MCA treatment for 9 weeks): markedly increased
liver weights ([4]; HFD): decreased
hepatic lipid droplets (liver histology) ([4]; HFD 7 weeks): marked reduction in hepatic lipid droplets
Shp and Fgf15 mRNAs in the ileum ([4]; HFD 9 weeks): decreased
expression of Shp mRNA in the liver ([4]; HFD 9 weeks): similar
intestinal mRNAs of ceramide de novo synthesis-related genes (Sptic3, Cers4, Degs1, Smpd3) ([4]; HFD 9 weeks): significantly lower
serum ALT levels ([4]; HFD 9 weeks): significantly decreased
serum AST levels ([4]; HFD 9 weeks): significantly decreased
serum triglyceride levels ([4]; HFD 9 weeks): remained similar
body weight gain ([4]; HFD, 10 mg/kg oral, after one week of treatment): reduced body weight gain
ITT: insulin sensitivity ([4]; HFD, 6 to 7 weeks): significantly increased
energy expenditure (TEEbal) ([4]; HFD, 6 to 7 weeks): increased the energy expenditure significantly
food intake ([4]; HFD, 6 to 7 weeks): comparable
absolute fat mass (NMR) ([4]; HFD, after 7 weeks of treatment): significantly decreased
hepatic triglyceride contents decreased to ([4]; HFD, relative to vehicle): approximately 51%
GTT: blood glucose levels after glucose loading ([4]; after 6 weeks of HFD): significantly reduced blood glucose levels
